The target of series [1] is P-glycoprotein (P-gp) (Homo sapiens, UniProt P08183). The series is described as follows: P-glycoprotein substrate / inhibitor status. It is filed as in vitro ADME. The text has this: (§1) Based on a validated physiological-based PK model simulation, strong CYP3A4 inhibitors may increase the exposure (e.g., area under the concentration-time curve) of unconjugated MMAE by ˜50% while acMMAE PK is not affected. Concomitant medications that are strong CYP3A4 inhibitors are considered cautionary as they may potentially lead to adverse reactions, which require close monitoring. […] Concomitant medications that are P-gp inhibitors are considered cautionary as they may potentially lead to adverse reactions, which require close monitoring.

The target in series [2] is CYP3A4 (Homo sapiens, UniProt P08684). Put plainly: In vitro metabolism of unconjugated MMAE. It is filed as in vitro ADME. As to conditions: in vitro data.
Source text: as §1

Where a SMILES comes first, the peptide text is derived from it. [ ]: non-standard residue; d: D form. The star is where a group is joined. Dolaproine = CO[C@@H]([C@@H]1CCCN1)[C@@H](C)C(=O)O; Dil = CC[C@H](C)[C@H](NC)[C@@H](CC(=O)O)OC; X1 = C[C@@H](N*)[C@@H](O)c1ccccc1; NMeV = CN[C@H](C(=O)O)C(C)C

Sequence of P-glycoprotein (P-gp) (P08183 whole entry): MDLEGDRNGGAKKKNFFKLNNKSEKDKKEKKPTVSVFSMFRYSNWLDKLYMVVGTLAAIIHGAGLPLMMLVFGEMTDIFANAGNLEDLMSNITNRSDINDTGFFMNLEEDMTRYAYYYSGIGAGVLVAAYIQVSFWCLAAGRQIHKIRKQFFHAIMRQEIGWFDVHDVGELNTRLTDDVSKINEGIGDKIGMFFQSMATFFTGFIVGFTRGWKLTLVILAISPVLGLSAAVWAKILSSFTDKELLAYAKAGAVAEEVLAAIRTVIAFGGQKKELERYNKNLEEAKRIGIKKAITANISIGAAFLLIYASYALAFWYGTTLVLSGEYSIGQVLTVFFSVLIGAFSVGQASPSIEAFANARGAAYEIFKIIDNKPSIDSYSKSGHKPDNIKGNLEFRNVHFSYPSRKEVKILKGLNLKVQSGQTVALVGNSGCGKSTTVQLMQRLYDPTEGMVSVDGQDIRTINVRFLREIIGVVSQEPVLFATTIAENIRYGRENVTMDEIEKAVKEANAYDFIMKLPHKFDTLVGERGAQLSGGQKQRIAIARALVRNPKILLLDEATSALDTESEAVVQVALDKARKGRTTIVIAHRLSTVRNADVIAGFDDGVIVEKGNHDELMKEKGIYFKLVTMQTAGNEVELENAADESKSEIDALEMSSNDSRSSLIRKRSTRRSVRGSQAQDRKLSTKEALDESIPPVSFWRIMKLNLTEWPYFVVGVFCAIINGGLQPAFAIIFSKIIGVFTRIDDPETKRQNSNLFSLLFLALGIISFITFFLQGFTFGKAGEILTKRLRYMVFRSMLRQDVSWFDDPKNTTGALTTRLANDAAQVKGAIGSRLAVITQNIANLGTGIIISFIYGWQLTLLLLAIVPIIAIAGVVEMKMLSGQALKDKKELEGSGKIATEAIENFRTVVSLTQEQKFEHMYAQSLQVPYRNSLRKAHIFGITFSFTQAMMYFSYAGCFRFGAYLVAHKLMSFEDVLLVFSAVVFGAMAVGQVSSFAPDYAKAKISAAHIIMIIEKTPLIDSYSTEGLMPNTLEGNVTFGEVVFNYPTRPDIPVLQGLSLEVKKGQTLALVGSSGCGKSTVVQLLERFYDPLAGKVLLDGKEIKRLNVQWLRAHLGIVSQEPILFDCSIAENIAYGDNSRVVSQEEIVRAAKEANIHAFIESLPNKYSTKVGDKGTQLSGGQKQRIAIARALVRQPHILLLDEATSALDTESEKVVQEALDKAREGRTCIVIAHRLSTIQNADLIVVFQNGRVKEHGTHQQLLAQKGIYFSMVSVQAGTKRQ
Sequence of CYP3A4 (P08684 whole entry): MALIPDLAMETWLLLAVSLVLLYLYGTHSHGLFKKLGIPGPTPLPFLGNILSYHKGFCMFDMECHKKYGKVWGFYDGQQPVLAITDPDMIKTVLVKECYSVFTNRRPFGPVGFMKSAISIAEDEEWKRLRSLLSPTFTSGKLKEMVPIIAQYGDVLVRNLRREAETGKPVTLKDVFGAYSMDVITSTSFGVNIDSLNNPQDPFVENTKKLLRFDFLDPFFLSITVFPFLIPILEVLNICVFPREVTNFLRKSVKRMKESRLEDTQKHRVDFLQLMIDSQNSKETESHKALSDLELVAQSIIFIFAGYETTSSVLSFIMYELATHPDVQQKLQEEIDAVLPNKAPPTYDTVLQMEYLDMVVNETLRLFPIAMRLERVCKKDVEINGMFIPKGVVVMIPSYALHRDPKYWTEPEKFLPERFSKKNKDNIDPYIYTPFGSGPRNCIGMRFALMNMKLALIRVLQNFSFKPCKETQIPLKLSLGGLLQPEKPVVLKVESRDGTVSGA

For the molecule `CC[C@H](C)[C@@H]([C@@H](CC(=O)N1CCC[C@H]1[C@H](OC)[C@@H](C)C(=O)N[C@H](C)[C@@H](O)c1ccccc1)OC)N(C)C(=O)[C@@H](NC(=O)[C@@H](NC)C(C)C)C(C)C` [MMAE, monomethylauristatin E] (H-[NMeV]V[Dil][Dolaproine]-X1), in series [1], the P-gp inhibitor entry is on record as “not a P-gp inhibitor”. Also, the “metabolism of unconjugated MMAE by CYP3A4” value in series [2] is on record as “mainly metabolized by CYP3A4”.

Source of the values: patent publication US20240336697A1, “METHODS OF USING ANTI-CD79B IMMUNOCONJUGATES TO TREAT DIFFUSE LARGE B-CELL LYMPHOMA” (Genentech, Inc., priority 2021, published 2024).
